Assay results from the OPERA property sets (Mansouri et al. 2018).

Settings: for log10 biotransformation half-life (days) / log10 BCF: fish

Row | Compound | melting point [°C] | boiling point [°C] | further results
1 | CCOC(=O)C(C)Oc1ccc(Oc2cnc3cc(Cl)ccc3n2)cc1 (centres undefined) | 84.2 |  | log10 Koc (L/kg): 2.71; log10 vapour pressure (mmHg): -8.19
2 | CN(C)c1ccc(C(O)c2ccc(N(C)C)cc2)cc1 | 101 |  | 
3 | c1ccc2c(c1)ccc1c3ccccc3ccc21 | 258 | 448 | log10 Henry constant (atm·m³/mol): -5.28; log10 biodegradation half-life (days): 2.58; log10 vapour pressure (mmHg): -8.21; log10 biotransformation half-life (days): 0.59
4 | ClC1=C(Cl)C(Cl)(Cl)C(Cl)(Cl)C1(Cl)Cl | 40 | 283 | 
5 | CC(=O)S[C@@H]1CC2=CC(=O)CC[C@]2(C)[C@H]2CC[C@@]3(C)[C@@H](CC[C@@]34CCC(=O)O4)[C@H]12 | 208 |  | 
6 | Cc1ccc2sc(C)nc2c1 | 38 |  | 
7 | c1cncc(-c2ccnc(-c3cccnc3)c2)c1 | 148 |  | 
8 | CCC(=O)c1cc(C)ccc1O | 2 |  | 
9 | CC(=O)NCC1(c2ccccc2)CCN(CCCC(=O)c2ccc(F)cc2)CC1 | 98.5 |  | 
10 | CCCC1COC(Cn2cncn2)(c2ccc(Cl)cc2Cl)O1 (centres undefined) |  |  | log10 Koc (L/kg): 3.39; log10 vapour pressure (mmHg): -6.38; log10 biotransformation half-life (days): 0.7
11 | COS(=O)(=O)OC | -27 |  | log10 vapour pressure (mmHg): -0.169
12 | Nc1ccc(S(=O)(=O)NC(=O)c2ccccc2)cc1 | 182 |  | 
13 | Cc1ccc(I)cc1 | 36.5 | 211 | 
14 | CC(C)O | -89.5 | 82.3 | log10 Henry constant (atm·m³/mol): -5.09; log10 vapour pressure (mmHg): 1.66; ready biodegradability: readily biodegradable
15 | COc1cc([C@@H]2c3cc4c(cc3[C@H](O)[C@H]3COC(=O)[C@@H]23)OCO4)cc(OC)c1OC | 206 |  | 
16 | CCCNc1c([N+](=O)[O-])cc(C(F)(F)F)cc1[N+](=O)[O-] |  |  | log10 Koc (L/kg): 3.61
17 | c1ccc(Oc2ccccc2)cc1 | 26.8 | 258 | log10 Koc (L/kg): 3.29; log10 vapour pressure (mmHg): -1.65; ready biodegradability: readily biodegradable; log10 BCF: 2.5; log10 biotransformation half-life (days): -0.09
18 | O=C(O)c1cccc(C(=O)O)c1C(=O)O | 200 |  | 
19 | CCn1cc(C(=O)O)c(=O)c2ccc(C)nc21 | 230 |  | 
20 | Cc1cc(Cl)cc2c1C(=O)/C(=C1/Sc3cc(Cl)cc(C)c3C1=O)S2 |  |  | log10 vapour pressure (mmHg): -13.5
21 | Cc1cccc2ncccc12 | 19 | 263 | 
22 | NC(=O)N(CCO)/N=C/c1ccc([N+](=O)[O-])o1 | 214 |  | 

Row | Compound | melting point [°C] | boiling point [°C] | further results
23 | CCCC(O)/C=C/C=C/C=C/C#CC#CCCCO (centres undefined) | 54 |  | 
24 | Cc1c(O)ccc(O)c1C | 224 |  | 
25 | C=C(C)c1cccc(C(=C)C)c1 |  | 231 | 
26 | Oc1c(F)cccc1F | 39.5 |  | 
27 | O=C(O)c1ccccn1 | 136 |  | ready biodegradability: readily biodegradable
28 | CN(C)c1ccc(N(C)C)cc1 | 51 | 260 | 
29 | CC(C)CCOC(=O)c1ccccc1O |  | 278 | ready biodegradability: readily biodegradable
30 | ClC(Cl)=C(c1ccc(Cl)cc1)c1ccccc1Cl |  |  | log10 Koc (L/kg): 5.49; log10 vapour pressure (mmHg): -5.21
31 | COCC(=O)Cl |  | 112 | 
32 | CC(Cl)CBr (centres undefined) |  | 118 | 
33 | C=COC(C)C | -140 | 55.5 | 
34 | COc1cc(Cl)ccc1O | 16.5 | 241 | 
35 | O=C1OC(c2ccccc2)(c2ccccc2)c2ccccc21 | 120 |  | 
36 | CC(CCCC(=O)O)C(=O)O (centres undefined) | 64 |  | 
37 | O=C(O)c1cccc(F)c1 | 124 |  | 
38 | Nc1cccc(-n2ccccc2=O)c1 | 183 |  | 
39 | O=COCCOC=O |  | 174 | 
40 | O=C(Nc1ccc(Br)cc1)c1cc(Br)ccc1O | 242 |  | 
41 | Nc1ccc(Cl)cc1 | 72.5 | 232 | log10 Koc (L/kg): 1.96; log10 vapour pressure (mmHg): -1.57; ready biodegradability: not readily biodegradable; log10 BCF: 0.84; log10 biotransformation half-life (days): -0.61
42 | O=[N+]([O-])c1ccc(C=NO)cc1 | 128 |  | 
43 | CCCCCCCCCCCCNC(=N)N | 136 |  | 
44 | Cc1ccc(-c2cc(C(F)(F)F)nn2-c2ccc(S(N)(=O)=O)cc2)cc1 | 158 |  | 
